# Data as given in patent US20070155772A1, “Use of genetic polymorphisms that associate with efficacy of treatment of inflammatory disease” (priority 2003, published 2007).
# “And” between values parts separate entries of the source, which are not always exact repeats. Equal entries are not always repeated.
# Tests used:
# [1] = system: pediatric subjects with moderate atopic dermatitis; assay: Phase IIIb trial, efficacy by Investigator global assessment (IGA) score on day 43; type: in vivo, human; conditions: for Efficacy (IGA): number of patients that experienced efficacy / Efficacy (IGA): percent of patients that experienced efficacy: IGA score of 0 or 1 on day 43
# Description: The genetic locus was identified in a Phase IIIb trial that was designed as a head to head comparison of pimecrolimus cream 1% and tacrolimus ointment 0.03%. The six-week investigator-blinded trial of pediatric subjects with moderate atopic dermatitis explored the incidence of local application site reactions induced by the two topical macrolactams, as well as their efficacy, safety and cosmetic acceptability. Blood samples for pharmacogenetic analysis were collected from consenting participants in the clinical trial, to define a genetic basis for response to either treatment. Statistical analysis. Investigator global assessment (IGA) scores were used as the primary marker of efficacy in the pharmacogenetic studies. IGA scores at the end of the Investigator Blinded phase of the trial (Day 43) were used as the main time-point for comparison. Last observation carried forward imputations were only required for one subject at day 43. In this case, there was no IGA score available after Day 29, and the score on this day was used in place of a day 43 IGA score. IGA scores were re-coded, as was done to assess efficacy in the trial itself. An IGA score of 0 or 1 was considered successful treatment and IGA scores of 2-5 were counted as treatment failure. The severity of pruritus was also used as a marker of efficacy. Pruritus scores were dichotomized into absence (score=0) or presence (score=1, 2 or 3) of pruritus. The fisher's exact model was employed to examine the genotype effect on each efficacy variable. All statistical analyses were done using SAS version 8.2 software.
# [2] = system: pediatric subjects with moderate atopic dermatitis; assay: Phase IIIb trial, severity of pruritus score on day 43; type: in vivo, human
# Description: The genetic locus was identified in a Phase IIIb trial that was designed as a head to head comparison of pimecrolimus cream 1% and tacrolimus ointment 0.03%. The six-week investigator-blinded trial of pediatric subjects with moderate atopic dermatitis explored the incidence of local application site reactions induced by the two topical macrolactams, as well as their efficacy, safety and cosmetic acceptability. Blood samples for pharmacogenetic analysis were collected from consenting participants in the clinical trial, to define a genetic basis for response to either treatment.
# Statistical analysis. Investigator global assessment (IGA) scores were used as the primary marker of efficacy in the pharmacogenetic studies. IGA scores at the end of the Investigator Blinded phase of the trial (Day 43) were used as the main time-point for comparison. Last observation carried forward imputations were only required for one subject at day 43. In this case, there was no IGA score available after Day 29, and the score on this day was used in place of a day 43 IGA score. IGA scores were re-coded, as was done to assess efficacy in the trial itself. An IGA score of 0 or 1 was considered successful treatment and IGA scores of 2-5 were counted as treatment failure. The severity of pruritus was also used as a marker of efficacy. Pruritus scores were dichotomized into absence (score=0) or presence (score=1, 2 or 3) of pruritus. The fisher's exact model was employed to examine the genotype effect on each efficacy variable. All statistical analyses were done using SAS version 8.2 software.
# Association between polymorphic markers and relief from pruritus. A secondary efficacy variable used in the trial was pruritus. An analysis was done to see if ASN60THR LTA and (−1031) TNF associated with this efficacy variable (assessed on day 43).
# [3] = (−1031) TNF genotype CC, day 43
# [4] = (−1031) TNF genotype CT, day 43
# [5] = (−1031) TNF genotype TT, day 43
# [6] = ASN60THR LTA genotype AA, day 43
# [7] = ASN60THR LTA genotype AC, day 43
# [8] = ASN60THR LTA genotype CC, day 43
# [9] = VAL63ILE CCR2 (TWT# 47987) genotype AG, day 43
# [10] = VAL63ILE CCR2 (TWT# 47987) genotype GG, day 43
# [11] = all (−1031) TNF genotypes, day 43
# [12] = all ASN60THR LTA genotypes, day 43
# [13] = all VAL63ILE CCR2 genotypes, day 43
smiles,measurement,setting,value
C=CC[C@@H]1/C=C(\C)C[C@H](C)C[C@H](OC)[C@H]2O[C@@](O)(C(=O)C(=O)N3CCCC[C@H]3C(=O)O[C@H](/C(C)=C/[C@@H]3CC[C@@H](O)[C@H](OC)C3)[C@H](C)[C@@H](O)CC1=O)[C@H](C)C[C@@H]2OC [tacrolimus],"No success (IGA ≧ 2), number of individuals",[1]; [3],1
same,"No success (IGA ≧ 2), percent",[1]; [3],50%
same,"Success (IGA = 0 or 1), number of individuals",[1]; [3],1
same,"Success (IGA = 0 or 1), percent",[1]; [3],50%
same,"No success (IGA ≧ 2), number of individuals",[1]; [4],2
same,"No success (IGA ≧ 2), percent",[1]; [4],40%
same,"Success (IGA = 0 or 1), number of individuals",[1]; [4],3
same,"Success (IGA = 0 or 1), percent",[1]; [4],60%
same,"No success (IGA ≧ 2), number of individuals",[1]; [5],8
same,"No success (IGA ≧ 2), percent",[1]; [5],47%
same,"Success (IGA = 0 or 1), number of individuals",[1]; [5],9
same,"Success (IGA = 0 or 1), percent",[1]; [5],53%
same,"No success (IGA ≧ 2), number of individuals",[1]; [6],3
same,"No success (IGA ≧ 2), percent",[1]; [6],43%
same,"Success (IGA = 0 or 1), number of individuals",[1]; [6],4
same,"Success (IGA = 0 or 1), percent",[1]; [6],57%
same,"No success (IGA ≧ 2), number of individuals",[1]; [7],4
same,"No success (IGA ≧ 2), percent",[1]; [7],40%
same,"Success (IGA = 0 or 1), number of individuals",[1]; [7],6
same,"Success (IGA = 0 or 1), percent",[1]; [7],60%
same,"No success (IGA ≧ 2), number of individuals",[1]; [8],4
same,"No success (IGA ≧ 2), percent",[1]; [8],57%
same,"Success (IGA = 0 or 1), number of individuals",[1]; [8],3
same,"Success (IGA = 0 or 1), percent",[1]; [8],42%
same,"No success (IGA ≧ 2), number of individuals",[1]; LTB (TWT#128095) genotype AC,3
same,"No success (IGA ≧ 2), percent",[1]; LTB (TWT#128095) genotype AC,60%
same,"Success (IGA = 0 or 1), number of individuals",[1]; LTB (TWT#128095) genotype AC,2
same,"Success (IGA = 0 or 1), percent",[1]; LTB (TWT#128095) genotype AC,40%
same,"No success (IGA ≧ 2), number of individuals",[1]; LTB (TWT#128095) genotype CC,8
same,"No success (IGA ≧ 2), percent",[1]; LTB (TWT#128095) genotype CC,44%
same,"Success (IGA = 0 or 1), number of individuals",[1]; LTB (TWT#128095) genotype CC,10
same,"Success (IGA = 0 or 1), percent",[1]; LTB (TWT#128095) genotype CC,56%
same,Efficacy (IGA): number of patients that experienced efficacy,[1]; Pharmacogenomics samples,13
same,Efficacy (IGA): percent of patients that experienced efficacy,[1]; Pharmacogenomics samples,52%
same,Efficacy (IGA): number of patients that experienced efficacy,[1]; Trial subjects,27
same,Efficacy (IGA): percent of patients that experienced efficacy,[1]; Trial subjects,40%
same,"No success (IGA ≧ 2), number of individuals",[1]; [9],2
same,"No success (IGA ≧ 2), percent",[1]; [9],20%
same,"Success (IGA = 0 or 1), number of individuals",[1]; [9],8/10 and 8
same,"Success (IGA = 0 or 1), percent",[1]; [9],80%
same,"No success (IGA ≧ 2), number of individuals",[1]; [10],9
same,"No success (IGA ≧ 2), percent",[1]; [10],69%
same,"Success (IGA = 0 or 1), number of individuals",[1]; [10],4/13 and 4
same,"Success (IGA = 0 or 1), percent",[1]; [10],31%
same,"No success (IGA ≧ 2), number of individuals, Total",[1]; [11],11
same,"Success (IGA = 0 or 1), number of individuals, Total",[1]; [11],13
same,"No success (IGA ≧ 2), number of individuals, Total",[1]; [12],11
same,"Success (IGA = 0 or 1), number of individuals, Total",[1]; [12],13
same,"No success (IGA ≧ 2), number of individuals, Total",[1]; all LTB (TWT#128095) genotypes,11
same,"Success (IGA = 0 or 1), number of individuals, Total",[1]; all LTB (TWT#128095) genotypes,12
same,"No success (IGA ≧ 2), number of individuals, Total",[1]; [13],11
same,"Success (IGA = 0 or 1), number of individuals, Total",[1]; [13],12
same,"Pruritus (day 43) score 0, number of subjects",[2]; Pharmacogenomics samples,5
same,"Pruritus (day 43) score 0, percent of subjects",[2]; Pharmacogenomics samples,20%
same,"Pruritus (day 43) score 1, number of subjects",[2]; Pharmacogenomics samples,10
same,"Pruritus (day 43) score 1, percent of subjects",[2]; Pharmacogenomics samples,40%
same,"Pruritus (day 43) score 2, number of subjects",[2]; Pharmacogenomics samples,7
same,"Pruritus (day 43) score 2, percent of subjects",[2]; Pharmacogenomics samples,28%
same,"Pruritus (day 43) score 3, number of subjects",[2]; Pharmacogenomics samples,3
same,"Pruritus (day 43) score 3, percent of subjects",[2]; Pharmacogenomics samples,12%
same,"Pruritus (day 43) score 0, number of subjects",[2]; Trial subjects,11
same,"Pruritus (day 43) score 0, percent of subjects",[2]; Trial subjects,16%
same,"Pruritus (day 43) score 1, number of subjects",[2]; Trial subjects,35
same,"Pruritus (day 43) score 1, percent of subjects",[2]; Trial subjects,50%
same,"Pruritus (day 43) score 2, number of subjects",[2]; Trial subjects,19
same,"Pruritus (day 43) score 2, percent of subjects",[2]; Trial subjects,27%
same,"Pruritus (day 43) score 3, number of subjects",[2]; Trial subjects,3
same,"Pruritus (day 43) score 3, percent of subjects",[2]; Trial subjects,4%
